Values joined by “and” are separate entries in the source; they are usually repeats but may differ in a detail not shown here. Identical values can stand only once.
Tests used:
wild type HIV-RT = target: T1, wild type HIV-RT (Human immunodeficiency virus type 1 group M subtype B, UniProt P04585); test: Ki / Km for wild type HIV-RT; assay type: biochemical, HIV-1
T1 construct: The Ki value for β-D-D4FC-TP for wild type HIV-RT

M184V mutant RT = M184V mutant RT (Human immunodeficiency virus type 1 group M subtype B, UniProt P04585, M771V); test: biochemical; assay type: biochemical, HIV-1; conditions: read-out: Ki for mutant RT
wild type HIV-1 [1] = test: Inhibition of wild type virus replication in MT-2 cells or PBMCs; assay type: cell-based; conditions: Human immunodeficiency virus 1, MT2; wild type laboratory and clinical isolates of HIV-1
Source text: The target concentration is that concentration where most mutant variants tested are suppressed by 90% or more.

HepG2 cells = test: Mitochondrial toxicity testing (mitDNA, rRNA, lactic acid); assay type: cell-based; conditions: 14 days; for % Change in Lactic Acid: normalized for cytotoxicity
Experimental: HepG2 cells were incubated for 14 days with the active agent. and mitDNA and rRNA levels were determined by quantitative real-time PCR. The results are tabulated in […]

[2] = system: mouse primary bone marrow cells; test: Mitochondrial toxicity in primary bone marrow cells; assay type: cell-based; conditions: concentrations <1 mM
[3] = Pharmacokinetics in the rhesus monkey; assay type: in vivo
clinical = conditions: in vivo; for CL renal: CLr; for CL/F: CLtot/F
Experimental: (§1) Total of 18 HIV-1 infected males, aged 18-55 years, enrolled, 6 per treatment cohort.
In Cohort 3, subjects received either 100 mg, or 200 mg, or placebo.
The data was analyzed using non-compartmental and two-compartmental models.
HIV RNA levels were also determined using quantitative real-time RT-PCR.
Plasma HIV-1 RNA levels were measured by quantitative reverse transcriptase-polymerase chain reaction (Q-RT-PCR) essentially as described by Stuyver, L. J. et al., “Antiviral activity and cellular toxicity of modified 2′,3′-dideoxy-2′,3′-didehydrocytidine analogues” Antimicrob Agents Chemother.

[4] = Safety and tolerability of single oral doses
Source text: as §1

[5] = pbmc
[6] = human, in vivo
wild type HIV-1 [7] = conditions: read-out: in vitro EC90 for wild type virus; cited from earlier work
in vivo [8] = conditions: rat
in vivo [9] = conditions: dog, 15 mg/kg

## Nc1nc(=O)n(C2C=CC(CO)O2)cc1F [β-D-D4FC, β-D-2′,3′-Didehydro-2′,3′-dideoxy-5-fluorocytidine]
Wild type HIV-RT
  Ki: 100 nM
M184V mutant RT
  Ki: 300 to 500 nM
Wild type HIV-1 [1]
  IC90: 855 ± 400 nM
HepG2 cells; 1 μM
  % Change in mitDNA: 0%
  % Change in rRNA: 0%
  % Change in Lactic Acid: +12%
HepG2 cells; 10 μM
  % Change in mitDNA: −1.6%
  % Change in rRNA: 0%
  % Change in Lactic Acid: −2%
[2]
  mitochondrial toxicity: not associated with mitochondrial toxicity
[3]; compared with AZT and 3TC
  plasma half-life: longer than either AZT or 3TC
[3]; rhesus monkey, in vivo
  clearance of parent: low clearance
clinical; human, 50 mg
  mean terminal half-life in plasma (t1/2): 6.8±4.2 h to 15.6±12.4
clinical; human, 200 mg
  mean t1/2: 11.3±1.6 hours to 14.3±3.1
clinical; human, po
  oral bioavailability: high oral bioavailability
clinical; male, human
  mean plasma half-life (t1/2): 12.3 ± 4.0 h
clinical; male, human, 10 mg
  Cmax: ~1 µM
  AUC(0-inf): 858 ng·h/mL
  CL renal: 136 mL/min
  CL/F: 196 mL/min
clinical; male, human, 10 mg, AUC Actual
  AUC: 3.6 ± 0.5 µM·h
clinical; male, human, 10 mg, AUC(0-τ)
  AUC: 843 ng·h/mL
clinical; male, human, 10 mg, Cmax
  Cmax: 197 ng/mL
clinical; male, human, 10 mg, Cmax Actual
  Cmax: 0.87 ± 0.13 µM
clinical; male, human, 10 mg, lowest Cmax, at which a maximal effect of viral inhibition was obtained
  Cmax: 0.87 µM
clinical; male, human, 10 mg, t1/2 λz
  half-life: 4.2 h
clinical; male, human, 10 mg, tmax
  Tmax: 1 h
clinical; male, human, 25 mg, AUC Actual
  AUC: 8.1 ± 1.5 µM·h
clinical; male, human, 25 mg, AUC(0-τ)
  AUC: 1830 ng·h/mL
clinical; male, human, 25 mg
  AUC(0-inf): 1840 ng·h/mL
  CL renal: 120 mL/min
  CL/F: 230 mL/min
clinical; male, human, 25 mg, Cmax
  Cmax: 406 ng/mL
clinical; male, human, 25 mg, Cmax Actual
  Cmax: 1.8 ± 0.5 µM
clinical; male, human, 25 mg, t1/2 λz
  half-life: 4.49 h
clinical; male, human, 25 mg, tmax
  Tmax: 1.17 h
clinical; male, human, 50 mg
  AUC(0-τ): 3,196 ng · h/mL
  AUC(0-∞): 3,221 ng · h/mL
  CLr: 4.30 L/h
  CLtot/F: 17,492 mL/h
  Cmax: 572 ng/mL
  t1/2 λz: 7.02 h
  AUC(0-inf): 3500 ng·h/mL
  CL renal: 73.2 mL/min
  CL/F: 245 mL/min
clinical; male, human, 50 mg, AUC Actual
  AUC: 27 ± 6.4 µM·h
clinical; male, human, 50 mg, AUC(0-τ)
  AUC: 3470 ng·h/mL
clinical; male, human, 50 mg, Cmax
  Cmax: 668 ng/mL
clinical; male, human, 50 mg, Cmax Actual
  Cmax: 4.8 ± 1.3 µM
clinical; male, human, 50 mg, mean Cmax
  Cmax: 2.5 µM
clinical; male, human, 50 mg, t1/2 λz
  half-life: 7.73 h
clinical; male, human, 50 mg, tmax
  Tmax: 1 h
clinical; male, human, 100 mg, AUC Actual
  AUC: 32.7 ± 6.8 µM·h
clinical; male, human, 100 mg, AUC(0-τ)
  AUC: 7010 ng·h/mL
clinical; male, human, 100 mg
  AUC(0-inf): 7100 ng·h/mL
  CL renal: 124 mL/min
  CL/F: 242 mL/min
clinical; male, human, 100 mg, Cmax
  Cmax: 1120 ng/mL
clinical; male, human, 100 mg, Cmax Actual
  Cmax: 5 ± 1.2 µM
clinical; male, human, 100 mg, t1/2 λz
  half-life: 9.25 h
clinical; male, human, 100 mg, tmax
  Tmax: 2.92 h
clinical; male, human, 200 mg, AUC Actual
  AUC: 52.5 ± 9.2 µM·h
clinical; male, human, 200 mg, AUC(0-τ)
  AUC: 11200 ng·h/mL
clinical; male, human, 200 mg
  AUC(0-inf): 11400 ng·h/mL
  CL renal: 125 mL/min
  CL/F: 301 mL/min
clinical; male, human, 200 mg, Cmax
  Cmax: 1750 ng/mL
clinical; male, human, 200 mg, Cmax Actual
  Cmax: 7.7 ± 1.6 µM
clinical; male, human, 200 mg, mean Tmax
  Tmax: 2.9 ± 1.6 h
clinical; male, human, 200 mg, t1/2 λz
  half-life: 10.9 h
clinical; male, human, 200 mg, tmax
  Tmax: 3.33 h
clinical; male, human, mean Tmax
  Tmax: 1.1 ± 0.2 h
clinical; male, human, mean plasma half-life (t1/2)
  half-life: 12.3 ± 4 h
clinical; male, human, po, 10 mg
  AUC Projected: 5.0 µM·h
  Cmax: 0.63 µM
clinical; male, human, po, 10 mg, AUC
  AUC: 3.57 ± 0.55 µM·h
clinical; male, human, po, 10 mg, Cmax
  Cmax: 0.87 ± 0.13 µM
clinical; male, human, po, 10 mg, T ½
  half-life: 6.8 ± 4.2 h
clinical; male, human, po, 10 mg, Tmax
  Tmax: 1 h
clinical; male, human, po, 25 mg
  AUC Projected: 12.5 µM·h
  Cmax: 1.6 µM
clinical; male, human, po, 25 mg, AUC
  AUC: 8.12 ± 1.47 µM·h
clinical; male, human, po, 25 mg, Cmax
  Cmax: 1.76 ± 0.48 µM
clinical; male, human, po, 25 mg, T ½
  half-life: 15.6 ± 12.4 h
clinical; male, human, po, 25 mg, Tmax
  Tmax: 1.4 ± 1.1 h
clinical; male, human, po, 50 mg
  AUC: 28.03 ± 4.51 µM·h
  AUC Projected: 25 µM·h
  T ½: 13.8 ± 2.4 h
clinical; male, human, po, 50 mg, AUC
  AUC: 25.9 ± 8.3 µM·h
clinical; male, human, po, 50 mg, Cmax
  Cmax: 4.4 ± 1.6 µM
clinical; male, human, po, 50 mg, T ½
  half-life: 14.3 ± 3.1 h
clinical; male, human, po, 50 mg, Tmax
  Tmax: 2 ± 0.8 h
clinical; male, human, po, 100 mg
  AUC Projected: 50 µM·h
  Cmax: 6.3 µM
clinical; male, human, po, 100 mg, AUC
  AUC: 32.7 ± 6.85 µM·h
clinical; male, human, po, 100 mg, Cmax
  Cmax: 4.95 ± 1.2 µM
clinical; male, human, po, 100 mg, T ½
  half-life: 11.3 ± 1.6 h
clinical; male, human, po, 100 mg, Tmax
  Tmax: 2.9 ± 1 h
clinical; male, human, po, 200 mg
  AUC Projected: 100 µM·h
  Cmax: 12.6 µM
clinical; male, human, po, 200 mg, AUC
  AUC: 52.5 ± 9.2 µM·h
clinical; male, human, po, 200 mg, Cmax
  Cmax: 7.7 ± 1.6 µM
clinical; male, human, po, 200 mg, T ½
  half-life: 12 ± 0.6 h
clinical; male, human, po, 200 mg, Tmax
  Tmax: 3.3 ± 1.6 h
clinical; male
  time plasma levels remain above the median effective concentrations in human PBM cells: > 24 h
[4]; any dose level
  serious adverse events: no serious adverse events
[4]; in vivo
  tolerability of single doses: well tolerated
[5]
  Intracellular half life: 13 to 17 h
[6]
  Intracellular [Nuc-PPP] in patients (target): 0.5 µM
Wild type HIV-1 [7]
  EC90: 900 nM and < 1000 nM
In vivo [8]; 15 mg/kg
  AUC at 28 d: 70 µM·h
  Cmax at 28 d: 17 µM
In vivo [8]; 45 mg/kg
  AUC at 28 d: 161 µM·h
  Cmax at 28 d: 44 µM
In vivo [9]; female
  AUC at 12 m: 431 µM·h
  Cmax at 12 m: 69 µM
In vivo [9]; male
  AUC at 12 m: 401 µM·h
  Cmax at 12 m: 74 µM
